In one series the test system is beta amyloid production. Description: Repressor Release Assay (RRA). As to conditions: for fold induction at 10 µg/mL: Conc 10 μg/ml. Format: cell-based. In short, it runs like this:
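Read-out is luciferase luminescence (RLU) after 36-48 h duplicate compound exposure of transfected CHO-K1 cells. These cells carry transiently introduced APP-lacI and pRSVO-luc DNA. Diluent control was 25 mM Hepes/1% DMSO; toxicity recorded as binary score (1 non-toxic, 0 toxic).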

The test system of a further series is CHO-K1 cells. The series can be described thus: Toxicity in RRA (loss of luciferase signal). As to conditions: toxicity = loss of signal (<0.75 fold increase).
[1] abbreviates: luciferase activity over diluent control, read-out: APPI Fold Increase.
The mark [2] stands for this setting: Conc 20 μg/ml, luciferase activity over diluent control, read-out: APPI Fold Increase.

Like-named read-outs stand apart in the source and are kept apart here.

Experimental for CHO-K1 cells: The beta amyloid inhibitory activity of the compounds of the present invention was determined using the Repressor Release Assay (RRA).
“Fold Increase” refers to the amount of luciferase activity (measured in relative light units) over diluent control. “SEM” refers to the standard error of the mean for fold increase.

For `CC[C@H](C)[C@H](NS(=O)(=O)c1ccccc1F)C(O)c1ccc(F)cc1` (stereo partly drawn) [Example 207, 2-fluoro-N-{(1S,2S)-1-[(4-fluorophenyl) (hydroxy)methyl]-2-methylbutyl}benzenesulfonamide], the fold induction at 10 µg/mL in the series on beta amyloid production (setting [1]) turned out to be 1.81. Besides, the “(%)APPI Toxicity” value in the series on CHO-K1 cells (Conc 10 μg/ml) was 1 (1=non-toxic).
For `CCCCC(O)(CCCC)[C@@H](NS(=O)(=O)c1ccc(Cl)cc1)[C@@H](C)CC` [Example 225, N-{(1S)-2-butyl-2-hydroxy-1-[(1S)-1-methylpropyl]hexyl}-4-chlorobenzenesulfonamide] the same measures were 6.82 and 1 (1=non-toxic).
As to `CC[C@H](C)[C@@H](CO)NS(=O)(=O)c1ccc2ccccc2c1` [Example 13, N-[(1S,2S)-1-(hydroxymethyl)-2-methylbutyl]naphthalene-2-sulfonamide], the fold induction at 20 µg/mL in the series on beta amyloid production (setting [2]) turned out to be 1.8. The “(%)APPI Toxicity” value with CHO-K1 cells (Conc 20 μg/ml) was 1 (1=non-toxic).
Take `O=S(=O)(NC1(CO)CC2CCC1C2)c1ccc(Br)cc1` (stereo not drawn) [Example 121, 4-bromo-N-[2-(hydroxymethyl)bicyclo[2.2.1.]hept-2-yl]benzenesulfonamide]: the “APPI Fold Increase” value in the series on beta amyloid production (Conc 20 μg/ml, luciferase activity over diluent control) is listed as 1.7 fold. The “APPI % of Example #98” value with beta amyloid production (Conc 20 μg/ml, relative to Example 98) is given as 45.1%. Moreover, in the series with CHO-K1 cells (Conc 20 μg/ml), the “(%)APPI Toxicity” value is on record as 1 (1=non-toxic).
For the compound `C=C(C)C(O)(C(=C)C)[C@@H](NS(=O)(=O)c1ccc(F)cc1)[C@@H](C)CC` [Example 243, 4-fluoro-N-{(1S)-2-hydroxy-2-isopropenyl-3-methyl-1-[(1S)-1-methylpropyl]-3-butenyl}benzenesulfonamide], the fold induction at 10 µg/mL in the series with beta amyloid production (setting [1]) was found to be 1.7. Further, in the series on CHO-K1 cells (Conc 10 μg/ml), the “(%)APPI Toxicity” value is on record as 1 (1=non-toxic).
As to `CC[C@H](C)[C@H](NS(=O)(=O)c1ccc(Cl)cc1)C(O)c1ccc(Cl)cc1` (stereo partly drawn) [Example 177, 4-chloro-N-{(1S,2S)-1-[(4-chlorophenyl) (hydroxy)methyl]-2-methylbutyl}benzenesulfonamide], the fold induction at 10 µg/mL in the series with beta amyloid production (setting [1]) turned out to be 1.95. Also, the “(%)APPI Toxicity” value in the series on CHO-K1 cells (Conc 10 μg/ml) was 1 (1=non-toxic).
Turning to `CC(C)C[C@H](CO)NS(=O)(=O)c1ccccc1F` [Example 113, 2-fluoro-N-[(1R)-1-(hydroxymethyl)-3-methylbutyl]benzenesulfonamide], the fold induction at 20 µg/mL with beta amyloid production (setting [2]) is 1.6. The “(%)APPI Toxicity” value in the series on CHO-K1 cells (Conc 20 μg/ml) is 1 (1=non-toxic).
As to `CC[C@H](C)[C@H](NS(=O)(=O)c1ccc(F)cc1)C(O)(CC)CC` [Example 242, N-{(1S)-2-ethyl-2-hydroxy-1-[(1S)-1-methylpropyl]butyl}-4-fluorobenzenesulfonamide], the fold induction at 10 µg/mL with beta amyloid production (setting [1]) came to 1.6. In addition, the “(%)APPI Toxicity” value in the series with CHO-K1 cells (Conc 10 μg/ml) is given as 1 (1=non-toxic).
For the compound `CC[C@H](C)[C@@H](CO)N(Cc1ccc(-c2ccccc2)cc1)S(=O)(=O)c1ccc(Cl)cc1` [Example 41, N-([1,1′-biphenyl]-4-ylmethyl)-4-chloro-N-[(1S,2S)-1-(hydroxymethyl)-2-methylbutyl]benzenesulfonamide], in the series on beta amyloid production (setting [2]), the fold induction at 20 µg/mL stood at 4.9. Further, the “(%)APPI Toxicity” value with CHO-K1 cells (Conc 20 μg/ml) is recorded as 1 (1=non-toxic).
`CC(C)C[C@@H](CO)NS(=O)(=O)c1ccccc1F` [Example 109, 2-fluoro-N-[(1S)-1-(hydroxymethyl)-3-methylbutyl]benzenesulfonamide]: the fold induction at 20 µg/mL in the series on beta amyloid production (setting [2]) turned out to be 1.9. The “(%)APPI Toxicity” value in the series on CHO-K1 cells (Conc 20 μg/ml) is 1 (1=non-toxic).
For `CC(C)[C@@H](CO)NS(=O)(=O)c1cc(F)c(Br)cc1F` [Example 26, 4-bromo-2,5-difluoro-N-[(1S)-1-(hydroxymethyl)-2-methylpropyl]benzenesulfonamide] the same measures were 2.4 and 1 (1=non-toxic).
In the case of `CCCCC(O)[C@@H](NS(=O)(=O)c1ccc(Br)cc1)[C@@H](C)CC` (stereo partly drawn) [Example 148, 4-bromo-N-{(1S)-2-hydroxy-1-[(1S)-1-methylpropyl]hexyl}benzenesulfonamide], the fold induction at 10 µg/mL with beta amyloid production (setting [1]) was found to be 1.88. Besides, the “(%)APPI Toxicity” value in the series with CHO-K1 cells (Conc 10 μg/ml) is recorded as 1 (1=non-toxic).
Consider `CC[C@H](C)[C@@H](CO)N(Cc1ccc(Cl)cc1)S(=O)(=O)c1ccc(Cl)cc1` [Example 43, 4-chloro-N-(4-chlorobenzyl)-N-[(1S,2S)-1-(hydroxymethyl)-2-methylbutyl]benzenesulfonamide], for which the fold induction at 20 µg/mL in the series with beta amyloid production (setting [2]) turned out to be 5.1. In the series with CHO-K1 cells (Conc 20 μg/ml), the “(%)APPI Toxicity” value is 1 (1=non-toxic).
For `CC[C@H](C)[C@H](NS(=O)(=O)c1ccc(F)cc1)C(O)(C(C)C)C(C)C` [Example 239, 4-fluoro-N-{(1S)-2-hydroxy-2-isopropyl-3-methyl-1-[(1S)-1-methylpropyl]butyl}benzenesulfonamide], the fold induction at 10 µg/mL in the series on beta amyloid production (setting [1]) came out at 1.54. The “(%)APPI Toxicity” value in the series with CHO-K1 cells (Conc 10 μg/ml) is 1 (1=non-toxic).
For `CC[C@H](C)[C@H](NS(=O)(=O)c1ccc(Br)cc1)C(O)(c1ccc(Cl)cc1)c1ccc(Cl)cc1` [Example 218, N-{(1S,2S)-1-[bis(4-chlorophenyl) (hydroxy)methyl]-2-methylbutyl}-4-bromobenzenesulfonamide], the fold induction at 10 µg/mL in the series on beta amyloid production (setting [1]) was found to be 1.55. Further, the “(%)APPI Toxicity” value in the series on CHO-K1 cells (Conc 10 μg/ml) is 1 (1=non-toxic).
As for `CC[C@H](C)[C@@H](CO)NS(=O)(=O)c1cccc(Br)c1` [Example 2, 3-bromo-N-[(1S,2S)-1-(hydroxymethyl)-2-methylbutyl]benzenesulfonamide], in the series with beta amyloid production (setting [2]), the fold induction at 20 µg/mL worked out at 2.8. In the series with CHO-K1 cells (Conc 20 μg/ml), the “(%)APPI Toxicity” value was 1 (1=non-toxic).
On to `CC[C@H](C)[C@H](NS(=O)(=O)c1ccc(F)cc1)C(O)c1ccc(Cl)cc1` (stereo partly drawn) [Example 136, N-{(1S,2S)-1-[(4-chlorophenyl)(hydroxy)methyl]-2-methylbutyl}-4-fluorobenzenesulfonamide], for which the fold induction at 10 µg/mL in the series on beta amyloid production (setting [1]) is 3.04. Further, the “(%)APPI Toxicity” value in the series with CHO-K1 cells (Conc 10 μg/ml) is reported as 1 (1=non-toxic).
Consider `C/C=C(\C)C(O)(/C(C)=C/C)[C@@H](NS(=O)(=O)c1ccc(F)cc1)[C@@H](C)CC` (stereo partly drawn) [Example 245, 4-fluoro-N-{(1S,3E)-2-hydroxy-3-methyl-2-[(1E)-1-methyl-1-propenyl]-1-[(1S)-1-methylpropyl]-3-pentenyl}benzenesulfonamide], for which the fold induction at 10 µg/mL in the series on beta amyloid production (setting [1]) was 2.05. Moreover, in the series with beta amyloid production (setting [2]), the fold induction at 20 µg/mL stood at 3.5. For the same compound, the “(%)APPI Toxicity” value in the series on CHO-K1 cells (Conc 10 μg/ml) and with CHO-K1 cells (Conc 20 μg/ml) was 1 (1=non-toxic) throughout.
With `CCCCC(O)[C@@H](NS(=O)(=O)c1cccc(Cl)c1)[C@@H](C)CC` (stereo partly drawn) [Example 189, 3-chloro-N-{(1S)-2-hydroxy-1-[(1S)-1-methylpropyl]hexyl}benzenesulfonamide], the fold induction at 10 µg/mL in the series on beta amyloid production (setting [1]) worked out at 1.51. In the series with CHO-K1 cells (Conc 10 μg/ml), the “(%)APPI Toxicity” value was 1 (1=non-toxic).
For `CCC(O)[C@@H](NS(=O)(=O)c1ccc(Cl)cc1)[C@@H](C)CC` (stereo partly drawn) [Example 176, 4-chloro-N-{(1S)-2-hydroxy-1-[(1S)-1-methylpropyl]butyl}benzenesulfonamide], the fold induction at 10 µg/mL with beta amyloid production (setting [1]) came to 2.63. Also, the “(%)APPI Toxicity” value in the series on CHO-K1 cells (Conc 10 μg/ml) was 1 (1=non-toxic).
Take `CC(C)(C)[C@@H](CO)NS(=O)(=O)c1c(Cl)cc(Cl)cc1Cl` [Example 32, 2,4,6-trichloro-N-[(1 S)-1-(hydroxymethyl)-2,2-dimethylpropyl]benzenesulfonamide]: the fold induction at 20 µg/mL with beta amyloid production (setting [2]) was 2.2. In the series on CHO-K1 cells (Conc 20 μg/ml), the “(%)APPI Toxicity” value is 1 (1=non-toxic).
Take `CCCCCC[C@@H](CCC)[C@@H](CO)NS(=O)(=O)c1ccc(Cl)cc1` [Example 58, 4-chloro-N-[(1S,2R)-1-(hydroxymethyl)-2-propyloctyl]benzenesulfonamide]: in the series on beta amyloid production (Conc 20 μg/ml, luciferase activity (RLU) over diluent control, read-out: APPI Fold Increase), the fold induction at 20 µg/mL worked out at 2.6. Further, the “(%)APPI Toxicity” value in the series on CHO-K1 cells (Conc 20 μg/ml, 1=non-toxic, 0=toxic) was 1 (1=non-toxic).
On to `O=S(=O)(N[C@H](CO)CC1CCCCC1)c1ccc(Cl)cc1` [Example 95, 4-chloro-N-[(1S)-2-cyclohexyl-1-(hydroxymethyl)ethyl]benzenesulfonamide], for which the fold induction at 20 µg/mL in the series with beta amyloid production (setting [2]) stood at 1.6. Further, the “(%)APPI Toxicity” value in the series with CHO-K1 cells (Conc 20 μg/ml) is 1 (1=non-toxic).
For the compound `CCCCCCC(O)(CCCCCC)[C@@H](NS(=O)(=O)c1ccc(Cl)cc1)[C@@H](C)CC` [Example 224, 4-chloro-N-{(1S)-2-hexyl-2-hydroxy-1-[(1S)-1-methylpropyl]octyl}benzenesulfonamide], the fold induction at 10 µg/mL with beta amyloid production (setting [1]) was found to be 2.22. Moreover, the “(%)APPI Toxicity” value with CHO-K1 cells (Conc 10 μg/ml) is reported as 1 (1=non-toxic).
In the case of `CCCCC(O)(CCCC)[C@@H](NS(=O)(=O)c1ccc(Br)cc1)[C@@H](C)CC` [Example 213, 4-bromo-N-{(1S)-2-butyl-2-hydroxy-1-[(1S)-1-methylpropyl]hexyl}benzenesulfonamide], the fold induction at 10 µg/mL in the series on beta amyloid production (setting [1]) came to 3.03. Besides, the “(%)APPI Toxicity” value in the series with CHO-K1 cells (Conc 10 μg/ml) is recorded as 1 (1=non-toxic).
As for `CC(c1ccccc1)C(CO)NS(=O)(=O)c1ccc(Cl)cc1` (stereo not drawn) [Example 38, 4-chloro-N-[1-(hydroxymethyl)-2-phenylpropyl]benzenesulfonamide], the fold induction at 20 µg/mL in the series with beta amyloid production (setting [2]) came to 3.3. Further, the “(%)APPI Toxicity” value with CHO-K1 cells (Conc 20 μg/ml) is 1 (1=non-toxic).
Consider `CC[C@H](C)[C@H](NS(=O)(=O)c1ccc(F)cc1)C(O)C=C(C)C` (stereo partly drawn) [Example 137, 4-fluoro-N-{(1S)-2-hydroxy-4-methyl 1-[(1S)-1-methylpropyl]-3-pentenyl}benzenesulfonamide], for which the fold induction at 10 µg/mL in the series with beta amyloid production (setting [1]) is 1.61. The “(%)APPI Toxicity” value with CHO-K1 cells (Conc 10 μg/ml) is 1 (1=non-toxic).
With `CC[C@H](C)[C@@H](CO)NS(=O)(=O)c1cccc(Cl)c1Cl` [Example 23, 2,3-dichloro-N-[(1S,2S)-1-(hydroxymethyl)-2-methylbutyl]benzenesulfonamide], the fold induction at 3 µg/mL in the series on beta amyloid production (Conc 3 μg/ml, luciferase activity over diluent control, read-out: APPI Fold Increase) was determined as 1.67. In the series on beta amyloid production (setting [1]), the fold induction at 10 µg/mL was 3.6. Besides, the fold induction at 20 µg/mL in the series on beta amyloid production (setting [2]) stood at 8.3. Further, the “(%)APPI Toxicity” value in the series with CHO-K1 cells (Conc 3 μg/ml), with CHO-K1 cells (Conc 10 μg/ml) and in the series with CHO-K1 cells (Conc 20 μg/ml) was 1 (1=non-toxic) in each case.

(Values after patent US7166622B2, “Substituted phenylsulfonamide inhibitors of beta amyloid production” (Wyeth, priority 2002, dated 2007).)
